Data as given in publication PMC11676693, “Population Pharmacokinetic and Pharmacodynamic Study of Palbociclib in Children and Young Adults with Recurrent, Progressive, or Refractory Brain Tumors” (Pharmaceutics, 2024).
Like-named read-outs stand apart in the source and are kept apart here.

Assays:
[1] = in vivo
Procedure: The patients included in this palbociclib population pharmacokinetic/pharmacodynamic analysis were treated in the phase I clinical trial PBTC-042 (NCT02255461), which evaluated single-agent oral palbociclib therapy in children and young adults with recurrent, progressive, or refractory brain tumors. Details of this clinical trial have been reported elsewhere. In adults treated with palbociclib, myelosuppression has been the main dose-limiting toxicity (DLT) reported, and the toxicity is greater in more heavily pretreated patients. Thus, patients in this pediatric trial were divided into two strata: stratum I included patients who were not heavily pretreated, while stratum II included heavily pretreated patients. The starting dosage for stratum I was 50 mg/m^2, with planned dose escalations to 75 mg/m^2 and 95 mg/m^2. The planned starting dosage for stratum II was one dosage level below the MTD for stratum I. The Institutional Review Board approved this trial and written informed consent was obtained from patients, parents, or legal guardians before the onset of any study procedures. Assent was obtained from patients as appropriate based on local institutional guidelines.
Pharmacokinetic studies of oral palbociclib (PD-0332991) were performed on course 1, day 1 and day 21 to evaluate the population pharmacokinetics of palbociclib. On day 2 of course 1, the palbociclib dose was held. On day 1 of course 1, palbociclib single-dose serial blood samples were drawn pre-dose and 0.5, 1, 2, 4, 8 (±1), 24 (±4), and 48 (±4) hours (immediately prior to the day 3 dose) after the oral dose. On day 21 of course 1, palbociclib steady-state serial blood samples were collected pre-dose and 1, 2, 4, 8 (±1), and 24 (±4) hours (immediately prior to the day 22 dose) after the dose.
At each time point, whole blood (2 mL) was collected in K2EDTA tubes, spun to plasma within one hour of collection, and stored at −20 °C until analysis. Palbociclib plasma concentrations were measured using a validated liquid chromatography–mass spectrometric assay method with a lower limit of quantitation (LLOQ) of 1 ng/mL [14].
Palbociclib serum concentration–time data from course 1, day 1 and day 21 were analyzed using nonlinear mixed-effects modeling implemented in Monolix software version 2023R1 (Lixoft, Antony, France) using the Stochastic Approximation Expectation Maximization (SAEM) algorithm. Inter-individual and inter-occasion variabilities were assumed to be log-normally distributed. A proportional residual error model was used to quantify the unexplained variability of the model. Error terms were assumed to be normally distributed. A one-compartment model with first-order absorption, the absorption lag time, and first-order elimination was used. Specifically, the PK parameters estimated included the absorption lag time (Tlag), absorption rate constant (ka), apparent oral volume (V/F), and apparent oral clearance (CL/F), where F was the bioavailability, which was not identifiable given only oral dosing was used. The inter-individual variability was estimated for all parameters. Additionally, the inter-occasion variability was estimated for the CL/F. The palbociclib dosage (i.e., the palbociclib dosage normalized to the patient body surface area (BSA)) was used as the model input. Data below the limit of quantitation (BLQ) were censored according to the Beal method M3 [17], as implemented in Monolix. […]

[2] = test system: proliferating neutrophils in the bone marrow compartment (ANC); test: Population pharmacodynamic model of ANC (neutrophil dynamics); type: in vivo, children and young adults
Procedure: (§1) A complete blood count (CBC) with differential was performed pre-therapy, weekly during course 1, and then weekly during courses 2 to 26. The CBC provided platelet and absolute neutrophil counts (ANCs).
(§2) The model describing the ANC and platelet dynamics has been previously described. The model for the ANC consisted of a bone marrow compartment with proliferating neutrophils, three transient compartments that represent the maturation process of the neutrophils from blasts to circulating neutrophils, and a circulating neutrophil compartment. The model included the negative feedback effects of endogenous G-CSF, which affected the growth rate of proliferating cells in a manner inversely proportional to the concentration of circulating neutrophils. We assumed that palbociclib only affected the proliferating neutrophils in the bone marrow compartment. We used a similar structural model for platelet dynamics. The model describing the neutrophil dynamics is shown in Equations (1)–(5) and Figure S1. (1) NPBM/dt=kinKM/KM+NcircIC50n/IC50n+Cpalblociclibn−kbpNPBM (2) dNT1/dt=kbpNPBM−NT1 (3) dNT2/dt=kbpNT1−NT2 (4) dNT3/dt=kbpNT2−NT3 (5) dNcirc/dt=kpbNT3−koutNcirc
The model parameters were as follows: NPBM: proliferating bone marrow stem cells; NT1, NT2, and NT3: transient compartments describing the maturation phases of the neutrophils; Ncirc: circulating neutrophils. Note that we were only able to observe this compartment. The model parameters were defined as follows: kin (1/days): the stem cell proliferation rate; kbp (1/days): the transition rate between transient compartments (the mean transition time from the bone marrow to the circulating neutrophils is 4/kbp); kout (1/days): the elimination rate of circulating neutrophils; KM (10^3/µL): the half-saturation effect of the G-CSF negative feedback; IC50 (nM) and n; the half-saturation effect and Hill coefficient of the palbociclib effects on the bone marrow; and Cpalbociclib (nM): the concentration of palbociclib in the plasma. Prior to treatment, the system was assumed to be steady-state, where Ncirc0 was the steady-state circulating neutrophil level. The following relationship between the model parameters was needed for the system to maintain steady state prior to treatment (Equation (6)). (6) KM=kbp/kin−kbpNcirc0
For this relationship to be positive, kin > kpb. To ensure this requirement, we defined kpb = fkbp·kin where fkbp ∈ [0, 1] and estimated fkbp. In addition, the initial conditions for the system at steady state (i.e., the steady-state solution to the system in the absence of the drug) are (Equation (7)) (7) kout/kbpNcirc0, kout/kbpNcirc0, kout/kbpNcirc0, kout/kbpNcirc0, Ncirc0
The parameters for the pharmacodynamic model were estimated using nonlinear mixed-effects modeling with the SAEM algorithm as implemented in the Monolix® software version 2023R1 (Lixoft, Antony, France). The palbociclib pharmacokinetics were fixed to each individual’s post hoc estimated parameters (as determined above). The inter-individual and inter-occasion variability were assumed to be log-normally distributed for all parameters except fkbp, which was assumed to be a logit distribution, so its value will be between 0 and 1. A proportional residual error model was used to quantify the unexplained variability of the model. Error terms were assumed to be normally distributed.

platelets (PLT) = test: Population pharmacodynamic model of platelet (PLT) dynamics; type: in vivo, children and young adults
Procedure: as §1
as §2, with “The model describing the neutrophil dynamics is shown in Equations (1)–(5) and Figure S1. (1) NPBM/dt=kinKM/KM+NcircIC50n/IC50n+Cpalblociclibn−kbpNPBM (2) dNT1/dt=kbpNPBM−NT1 (3) dNT2/dt=kbpNT1−NT2 (4) dNT3/dt=kbpNT2−NT3 (5) dNcirc/dt=kpbNT3−koutNcirc” left out
The parameters for the pharmacodynamic model were estimated using nonlinear mixed-effects modeling with the SAEM algorithm as implemented in the Monolix® software version 2023R1 (Lixoft, Antony, France). The palbociclib pharmacokinetics were fixed to each individual’s post hoc estimated parameters (as determined above). […] A proportional residual error model was used to quantify the unexplained variability of the model. […]

[3] = design: method as in PMID 37553297; details: mean (range), 12 children, cited from earlier work
[4] = cited from earlier work
[5] = median (5th–95th percentile), individual model estimates, first two courses

## CC(=O)c1c(C)c2cnc(Nc3ccc(N4CCNCC4)cn3)nc2n(C2CCCC2)c1=O [palbociclib]
[1]; human
  Inter-patient variability (IIV) of CL/F: 0.24
  absorption rate constant: 0.48 h⁻¹
  decrease of inter-patient variability of CL/F with inclusion of AST: 10%
[1]; human, po
  fold lower apparent oral clearance: 2 fold
[1]
  effect of concomitant drugs as covariates on CL/F: None of the concomitant drugs considered as covariates were significant
[2]; Homo sapiens, Neutrophil, read-out: IC50 (half-saturation effect of palbociclib on the bone marrow)
  IC50: 384 nM
[2]; courses 3 and 4 predicted from courses 1 and 2
  cumulative nature of decreases in ANCs: not cumulative
[2]; median (5th–95th percentile) (abstract)
  time individuals had grade 3 or greater neutropenia: 4 (0, 21) days
[2]; median (5th–95th percentile), first two courses
  ANC nadir: 1.0 (0.4, 3.3) × 10^3/µL
[2]; [5]
  time below an ANC of 0.5 × 10^3/µL (grade 4 neutropenia): 0 (0, 11) days/course
  time below an ANC of 1.0 × 10^3/µL (grade 3 neutropenia): 4 (0, 21) days/course
  time below an ANC of 1.5 × 10^3/µL (grade 2 neutropenia): 15 (0, 35) days/course
Platelets (PLT); Homo sapiens, Platelet, read-out: IC50 (half-saturation effect of palbociclib on the bone marrow)
  IC50: 559 nM
Platelets (PLT); individual model estimates, first two courses, 31 individuals
  individuals with grade 1 (<100 ×) or greater thrombocytopenia: three
[3]; capsule and liquid formulations
  steady state apparent oral clearance: 40.4 (21.1–102.0) L/h/m^2
[3]
  half-life: 27.9 (4.5–86.8) hours
[4]; Courlet, 45 women with metastatic breast cancer, two-compartment model
  apparent oral clearance: 67 L/h
[4]; Courlet, 45 women with metastatic breast cancer
  apparent oral clearance: 39 L/h/m^2
[4]; Royer, adults, 124 patients
  apparent oral clearance: 34 L/h/m^2
[4]; Royer, adults, therapeutic drug monitoring data, 124 patients
  apparent oral clearance: 58 L/h
[4]; adults, 143 patients
  apparent oral clearance: 34 L/h/m^2
[4]; adults, therapeutic drug monitoring data, 143 patients
  apparent oral clearance: 57 L/h
[4]; taken under fasting conditions along with concomitant proton pump inhibitors
  increase of apparent oral clearance: 56%
